Assay results from ChEMBL document CHEMBL1201862, “PubChem BioAssay data set” (2004).
Active and inactive are the calls of the source.

Legend:
[1] = cervical cancer cell viability loss – HeLa, 24 h, plate reader, powder samples, set 3, cytotoxicity control, dose response (AID 651864); assay type: functional, cell-based
[2] = A549 lung cell viability reduction – CellTiter-Glo luminescence, cherry-pick, cytotoxicity control, dose response (AID 743484); assay type: functional, cell-based
[3] = Counterscreen for activators of the function of SWI/SNF related, matrix associated, actin dependent regulator of chromatin, subfamily a, member 2 (SMARCA2, BRM): Luminescence-based cell-based high throughput dose response assay to identify non-selective compounds using the VP16 reporter assay.; assay type: functional
[4] = molecular target: T1, Heat shock factor protein 1 (Mus musculus, UniProt P38532); experiment: enhancement of HSF1-driven luciferase signal – cell-based, NIH3T3, luminescence, dose retest, confirmation (AID 435004); assay type: functional;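 also: stress induced by proteasome inhibitor MG132 added 30 min after compound; luciferase reporter driven by HSF1 response element in NIH3T3 cells; actives raise luminescence as potentiators of the MG132 stress response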
T1 sequence (P38532 whole entry): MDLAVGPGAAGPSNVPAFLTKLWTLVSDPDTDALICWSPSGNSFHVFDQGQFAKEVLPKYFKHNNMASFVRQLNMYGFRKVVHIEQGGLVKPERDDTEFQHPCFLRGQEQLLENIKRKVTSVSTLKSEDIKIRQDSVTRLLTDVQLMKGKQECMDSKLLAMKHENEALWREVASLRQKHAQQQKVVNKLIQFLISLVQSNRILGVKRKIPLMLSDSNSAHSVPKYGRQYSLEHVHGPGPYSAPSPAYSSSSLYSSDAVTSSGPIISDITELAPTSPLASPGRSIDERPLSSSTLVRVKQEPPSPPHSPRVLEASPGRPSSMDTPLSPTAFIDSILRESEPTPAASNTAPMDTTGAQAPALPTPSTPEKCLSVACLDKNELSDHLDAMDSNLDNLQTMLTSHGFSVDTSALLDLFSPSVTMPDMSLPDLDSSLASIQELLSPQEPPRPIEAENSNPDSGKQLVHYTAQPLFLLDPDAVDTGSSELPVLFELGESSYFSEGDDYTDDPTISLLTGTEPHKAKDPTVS

[5] = molecular target: DNA repair and recombination protein RAD54-like (Homo sapiens, UniProt Q92698); experiment: RAD54 Holliday junction migration blockers – biochemical, fluorescence, cherry-picked samples, dose series, confirmation (AID 651657); assay type: functional
[6] = molecular target: SWI/SNF-related matrix-associated actin-dependent regulator of chromatin subfamily A member 2 (Homo sapiens, UniProt P51531); experiment: Luminescence-based cell-based high throughput dose response assay to identify activators of the function of SWI/SNF related, matrix associated, actin dependent regulator of chromatin, subfamily a, member 2 (SMARCA2, BRM).; assay type: functional
[7] = Luminescence Cell-Based Dose Response HTS to Identify Inhibitors of 5'UTR Stem-Loop Driven Prion Protein mRNA Translation in H4 Neuroglioblastoma Cells. [Related pubchem assays: 1827 (Project Summary), 1813 (Primary HTS)]; assay type: functional
[8] = ATP-based viability loss in HEK293T cells – cell-based, CellTiter-Glo luminescence, cherry-picked samples, set 4, cytotoxicity control, dose response (AID 743441); assay type: functional; settings: HEK293
[9] = alpha-synuclein stem-loop luciferase translation blockers – H4 neuroglioma cells, luminescence, confirmation (AID 1988); assay type: functional, cell-based
[10] = molecular target: T2, Voltage-gated N-type calcium channel alpha-1B subunit/Amyloid beta A4 precursor protein-binding family A member 1 (Homo sapiens, UniProt Q00975+Q02410); assay type: protein assay
[11] = molecular target: T3, Sentrin-specific protease 8 (Homo sapiens, UniProt Q96LD8); assay type: functional
T3 sequence (Q96LD8 whole entry): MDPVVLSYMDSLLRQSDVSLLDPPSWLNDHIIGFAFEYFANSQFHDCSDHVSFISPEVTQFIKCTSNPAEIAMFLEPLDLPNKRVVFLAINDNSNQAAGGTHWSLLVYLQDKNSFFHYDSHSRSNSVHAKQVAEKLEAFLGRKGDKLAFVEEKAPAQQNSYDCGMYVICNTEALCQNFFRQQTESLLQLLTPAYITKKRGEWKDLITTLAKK

[12] = molecular target: T3, Sentrin-specific protease 8; assay type: functional; remark: listed apart in the source
[13] = molecular target: T2, Voltage-gated N-type calcium channel alpha-1B subunit/Amyloid beta A4 precursor protein-binding family A member 1; assay type: protein assay; remark: listed apart in the source
[14] = molecular target: fMet-Leu-Phe receptor (Homo sapiens, UniProt P21462); experiment: formyl peptide receptor binders – dose response (AID 519); assay type: functional
[15] = molecular target: Glucose-6-phosphate 1-dehydrogenase (Homo sapiens, UniProt P11413); experiment: inhibition of Homo sapiens G6PD, dose series – biochemical, fluorescence, selectivity assay for P. falciparum G6PD inhibitor project, dose response (AID 504792); assay type: functional
[16] = viability loss in HepG2 hepatoma cells – cell-based, ATP luminescence, cherry-pick, activator set 2, cytotoxicity control, dose response (AID 1053143); assay type: functional
[17] = molecular target: Matrix metalloproteinase-14 (Homo sapiens, UniProt P50281); experiment: Dose Response confirmation of uHTS hits for a small molecule inhibitors of MT1-MMP activation in a fluorescence assay set 1.; assay type: functional
[18] = cells; assay type: functional, cell-based
[19] = viability loss in HEK293 cells – cell-based, plate reader, cherry-picked samples, cytotoxicity control, dose response (AID 743446); assay type: functional
[20] = test system: BJ; experiment: BJ-TERT-LT-ST fibroblast viability loss – cell-based, RAS-independent, luminescence, dose response (AID 1935); assay type: functional; settings: Homo sapiens;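 also: BJ fibroblasts immortalized with TERT plus LT and ST oncogenes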
[21] = blockers of bursicon-stimulated LGR2 cAMP reporter – cell-based, HEK293, CRE-luciferase reporter, cherry pick, set 2, dose response (AID 743343); assay type: functional;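 also: transfected cells were stimulated with diluted bursicon conditioned medium after compound addition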
[22] = test system: BJ; experiment: BJ-TERT fibroblast viability loss – cell-based, RAS-independent, luminescence, dose response (AID 1933); assay type: functional; settings: Homo sapiens
[23] = DRD fibroblast viability loss – cell-based, non-viral oncogenic, luminescence, dose response (AID 1934); assay type: functional; settings: Homo sapiens
[24] = molecular target: Luciferin 4-monooxygenase (Photinus pyralis, UniProt P08659); experiment: inhibition of purified Photinus pyralis luciferase – biochemical, luminescence, dose response (AID 1891)
[25] = toxicity toward HepG2 liver cells – cell-based, plate reader, cherry-pick, antagonist series, cytotoxicity control, dose response (AID 743416); assay type: functional
[26] = test system: INS1; experiment: INS-1E survival protection against cytokine death – cell-based, luminescence, retest, dose response (AID 449756); assay type: functional; settings: Rattus norvegicus;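 also: cell death triggered by IL-1 beta plus TNF-alpha plus IFN-gamma mixture; protective hits raise ATP signal compared with cytokine alone wells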
[27] = A549 cell cytotoxicity, dose response, cytotoxicity control, plate reader, cherry-pick, antagonist series (AID 743412); assay type: functional, cell-based
[28] = test system: BJ; experiment: cells; assay type: functional, cell-based; settings: Homo sapiens
[29] = blockade of melanocortin 4 receptor signaling – cell-based, plate reader, cherry pick, counter-screen for LGR2 antagonist project, dose response (AID 743444); assay type: functional;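 also: transfected HEK 293 cells stimulated with alpha-MSH peptide; potency of inhibitors of the alpha-MSH evoked signal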
[30] = Luminescence Cell-Based Dose Confirmation HTS to Identify Inhibitors of Platelet Dense Granule Release. [Related pubchem assays: 1663 (Primary HTS), 1678 (Summary of Project)]; assay type: functional
[31] = cells; assay type: functional, cell-based; remark: listed apart in the source
[32] = molecular target: Broad substrate specificity ATP-binding cassette transporter ABCG2 (Homo sapiens, UniProt Q9UNQ0); experiment: blockers of JC-1 export by ABCG2 – Ig-MXP3 cells, flow cytometry, dose response (AID 1690); assay type: functional
[33] = molecular target: ATP-dependent translocase ABCB1 (Homo sapiens, UniProt P08183); experiment: inhibition of P-gp mediated JC-1 efflux – Jurkat-DNR cells, flow cytometry, dose response (AID 1689); assay type: functional
[34] = molecular target: Long-chain-fatty-acid--AMP ligase FadD28 (Mycobacterium tuberculosis, UniProt P9WQ59); experiment: Fluorescence polarization aasay to screen for inhibitors that compete for the binding of FadD28 to a bisubstrate Measured in Biochemical System Using Plate Reader - 2147-01_Inhibitor_Dose_CherryPick_Activity.; assay type: functional, Mycobacterium tuberculosis H37Rv
[35] = Shn3 3'UTR reporter signal decrease – cell-based, Clone20 osteoblasts, firefly luciferase, cherry-pick, set 2, Schnurri-3 inhibitor project, dose response (AID 720490); assay type: functional;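 also: actives lower the luminescence signal as inhibitors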
[36] = non-specific 3'UTR reporter inhibition in Clone20-Shn3RL – cell-based, Renilla luciferase, cherry-picked, counter-screen for Shn3 inhibitor project, dose response (AID 624133); assay type: functional
[37] = reduction of Shn3 3'UTR-driven luciferase in osteoblasts – cell-based, Clone20 osteoblasts, firefly luciferase, cherry-picked, dose response (AID 624132); assay type: functional;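 also: firefly luciferase luminescence from reporter carrying the Shn3 3'UTR in osteoblasts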
[38] = loss of viability in HepG2 cells – cell-based, CellTiter-Glo, cherry-picked, cytotoxicity control for Shn3 inhibitor project, dose response (AID 624134); assay type: functional
[39] = test system: A549; experiment: viability loss in A549 cells – cell-based, plate reader, cherry-pick samples, cytotoxicity control, dose response (AID 687028); assay type: functional; settings: Homo sapiens

T2 sequence (Q00975 whole entry): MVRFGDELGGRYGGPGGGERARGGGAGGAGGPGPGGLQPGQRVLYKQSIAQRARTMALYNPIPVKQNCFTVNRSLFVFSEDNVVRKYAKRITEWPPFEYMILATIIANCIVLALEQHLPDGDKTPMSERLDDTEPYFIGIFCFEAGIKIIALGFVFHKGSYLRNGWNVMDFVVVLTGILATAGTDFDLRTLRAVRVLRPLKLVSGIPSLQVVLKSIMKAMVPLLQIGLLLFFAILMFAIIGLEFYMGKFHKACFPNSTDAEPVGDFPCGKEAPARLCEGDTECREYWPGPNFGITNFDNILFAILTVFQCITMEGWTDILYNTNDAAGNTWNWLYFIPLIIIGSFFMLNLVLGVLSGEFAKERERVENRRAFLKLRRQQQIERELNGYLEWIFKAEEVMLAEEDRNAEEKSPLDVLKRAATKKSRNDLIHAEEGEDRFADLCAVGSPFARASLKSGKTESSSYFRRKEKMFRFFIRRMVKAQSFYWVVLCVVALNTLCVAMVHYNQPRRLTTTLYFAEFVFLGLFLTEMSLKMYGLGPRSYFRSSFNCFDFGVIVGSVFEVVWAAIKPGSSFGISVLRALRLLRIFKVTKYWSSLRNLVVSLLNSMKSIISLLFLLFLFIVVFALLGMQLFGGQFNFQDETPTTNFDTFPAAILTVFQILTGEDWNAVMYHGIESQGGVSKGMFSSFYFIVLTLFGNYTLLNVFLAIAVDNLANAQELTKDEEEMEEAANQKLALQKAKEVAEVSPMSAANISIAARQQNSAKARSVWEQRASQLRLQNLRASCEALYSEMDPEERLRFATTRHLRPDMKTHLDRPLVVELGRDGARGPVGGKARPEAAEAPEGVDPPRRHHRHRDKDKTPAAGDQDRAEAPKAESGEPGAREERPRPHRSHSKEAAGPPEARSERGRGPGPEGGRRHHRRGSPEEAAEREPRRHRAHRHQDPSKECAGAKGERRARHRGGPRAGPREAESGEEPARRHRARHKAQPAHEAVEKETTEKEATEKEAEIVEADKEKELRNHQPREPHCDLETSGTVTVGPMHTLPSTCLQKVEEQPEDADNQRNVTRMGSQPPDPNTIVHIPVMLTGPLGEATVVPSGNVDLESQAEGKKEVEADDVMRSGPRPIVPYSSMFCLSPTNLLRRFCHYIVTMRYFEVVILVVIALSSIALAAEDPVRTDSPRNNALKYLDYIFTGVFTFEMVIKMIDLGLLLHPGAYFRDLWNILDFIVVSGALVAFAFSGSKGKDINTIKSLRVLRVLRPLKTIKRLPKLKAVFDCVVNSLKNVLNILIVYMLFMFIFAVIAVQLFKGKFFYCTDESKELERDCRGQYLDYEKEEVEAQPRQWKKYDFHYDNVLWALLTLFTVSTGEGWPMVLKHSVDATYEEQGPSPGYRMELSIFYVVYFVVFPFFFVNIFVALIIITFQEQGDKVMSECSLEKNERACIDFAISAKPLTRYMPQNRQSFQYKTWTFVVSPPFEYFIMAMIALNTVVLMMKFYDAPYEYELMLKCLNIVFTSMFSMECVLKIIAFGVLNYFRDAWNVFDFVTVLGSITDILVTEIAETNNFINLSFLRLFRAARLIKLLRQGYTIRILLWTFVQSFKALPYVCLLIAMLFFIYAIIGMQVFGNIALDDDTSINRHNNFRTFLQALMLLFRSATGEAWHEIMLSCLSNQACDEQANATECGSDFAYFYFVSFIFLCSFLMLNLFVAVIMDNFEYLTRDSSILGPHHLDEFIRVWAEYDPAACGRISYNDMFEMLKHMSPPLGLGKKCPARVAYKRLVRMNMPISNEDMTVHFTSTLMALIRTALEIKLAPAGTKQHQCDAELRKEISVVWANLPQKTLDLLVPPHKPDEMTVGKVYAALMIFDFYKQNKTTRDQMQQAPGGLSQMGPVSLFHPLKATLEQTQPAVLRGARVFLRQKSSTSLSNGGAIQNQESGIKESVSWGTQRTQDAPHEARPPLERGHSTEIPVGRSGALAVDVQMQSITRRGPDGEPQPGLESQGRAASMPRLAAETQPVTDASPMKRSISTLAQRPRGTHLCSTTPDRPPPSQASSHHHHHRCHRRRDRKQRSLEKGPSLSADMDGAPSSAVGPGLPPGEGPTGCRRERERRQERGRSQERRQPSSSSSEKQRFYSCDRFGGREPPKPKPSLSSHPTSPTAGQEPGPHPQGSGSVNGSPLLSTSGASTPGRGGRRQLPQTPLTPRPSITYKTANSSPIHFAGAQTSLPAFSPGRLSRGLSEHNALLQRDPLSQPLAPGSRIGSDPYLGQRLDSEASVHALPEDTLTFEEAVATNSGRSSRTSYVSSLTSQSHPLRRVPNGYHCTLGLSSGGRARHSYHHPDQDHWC
T2 sequence (Q02410 whole entry): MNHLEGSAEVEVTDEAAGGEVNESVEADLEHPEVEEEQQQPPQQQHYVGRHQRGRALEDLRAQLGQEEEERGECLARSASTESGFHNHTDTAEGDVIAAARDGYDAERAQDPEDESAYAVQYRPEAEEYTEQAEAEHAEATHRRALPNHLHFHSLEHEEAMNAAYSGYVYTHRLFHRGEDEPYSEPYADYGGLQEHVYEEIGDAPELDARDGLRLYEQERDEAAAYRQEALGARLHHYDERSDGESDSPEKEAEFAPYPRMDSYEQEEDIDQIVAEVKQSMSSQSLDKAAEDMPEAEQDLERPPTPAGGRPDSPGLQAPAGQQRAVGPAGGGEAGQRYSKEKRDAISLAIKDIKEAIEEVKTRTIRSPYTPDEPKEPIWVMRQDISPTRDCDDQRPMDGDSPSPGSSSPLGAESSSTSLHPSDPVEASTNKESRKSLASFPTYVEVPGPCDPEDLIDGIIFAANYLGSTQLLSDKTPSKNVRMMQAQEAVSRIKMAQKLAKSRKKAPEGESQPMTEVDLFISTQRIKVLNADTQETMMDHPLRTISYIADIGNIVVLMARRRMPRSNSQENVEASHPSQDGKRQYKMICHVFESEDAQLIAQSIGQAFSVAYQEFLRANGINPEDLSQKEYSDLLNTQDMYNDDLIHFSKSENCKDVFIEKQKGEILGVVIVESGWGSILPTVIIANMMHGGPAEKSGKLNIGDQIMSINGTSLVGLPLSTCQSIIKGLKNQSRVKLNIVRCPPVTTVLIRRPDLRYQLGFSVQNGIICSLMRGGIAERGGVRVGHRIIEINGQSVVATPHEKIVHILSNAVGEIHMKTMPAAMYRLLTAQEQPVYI
Chain of Glucose-6-phosphate 1-dehydrogenase (P11413 whole entry): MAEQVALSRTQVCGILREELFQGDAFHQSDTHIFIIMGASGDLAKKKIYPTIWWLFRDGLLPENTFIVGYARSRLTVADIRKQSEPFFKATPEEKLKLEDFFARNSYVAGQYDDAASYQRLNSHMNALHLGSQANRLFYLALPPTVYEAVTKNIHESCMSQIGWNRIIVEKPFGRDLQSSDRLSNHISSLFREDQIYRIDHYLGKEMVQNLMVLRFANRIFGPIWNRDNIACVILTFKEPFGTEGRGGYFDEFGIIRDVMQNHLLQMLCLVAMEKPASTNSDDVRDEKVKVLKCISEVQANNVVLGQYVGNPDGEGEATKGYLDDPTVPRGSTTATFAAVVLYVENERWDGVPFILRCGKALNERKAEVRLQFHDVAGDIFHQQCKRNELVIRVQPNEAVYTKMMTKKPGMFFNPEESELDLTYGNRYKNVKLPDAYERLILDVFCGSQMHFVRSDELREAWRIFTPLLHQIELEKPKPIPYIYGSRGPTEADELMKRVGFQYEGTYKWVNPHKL
Chain of ATP-dependent translocase ABCB1 (P08183 whole entry): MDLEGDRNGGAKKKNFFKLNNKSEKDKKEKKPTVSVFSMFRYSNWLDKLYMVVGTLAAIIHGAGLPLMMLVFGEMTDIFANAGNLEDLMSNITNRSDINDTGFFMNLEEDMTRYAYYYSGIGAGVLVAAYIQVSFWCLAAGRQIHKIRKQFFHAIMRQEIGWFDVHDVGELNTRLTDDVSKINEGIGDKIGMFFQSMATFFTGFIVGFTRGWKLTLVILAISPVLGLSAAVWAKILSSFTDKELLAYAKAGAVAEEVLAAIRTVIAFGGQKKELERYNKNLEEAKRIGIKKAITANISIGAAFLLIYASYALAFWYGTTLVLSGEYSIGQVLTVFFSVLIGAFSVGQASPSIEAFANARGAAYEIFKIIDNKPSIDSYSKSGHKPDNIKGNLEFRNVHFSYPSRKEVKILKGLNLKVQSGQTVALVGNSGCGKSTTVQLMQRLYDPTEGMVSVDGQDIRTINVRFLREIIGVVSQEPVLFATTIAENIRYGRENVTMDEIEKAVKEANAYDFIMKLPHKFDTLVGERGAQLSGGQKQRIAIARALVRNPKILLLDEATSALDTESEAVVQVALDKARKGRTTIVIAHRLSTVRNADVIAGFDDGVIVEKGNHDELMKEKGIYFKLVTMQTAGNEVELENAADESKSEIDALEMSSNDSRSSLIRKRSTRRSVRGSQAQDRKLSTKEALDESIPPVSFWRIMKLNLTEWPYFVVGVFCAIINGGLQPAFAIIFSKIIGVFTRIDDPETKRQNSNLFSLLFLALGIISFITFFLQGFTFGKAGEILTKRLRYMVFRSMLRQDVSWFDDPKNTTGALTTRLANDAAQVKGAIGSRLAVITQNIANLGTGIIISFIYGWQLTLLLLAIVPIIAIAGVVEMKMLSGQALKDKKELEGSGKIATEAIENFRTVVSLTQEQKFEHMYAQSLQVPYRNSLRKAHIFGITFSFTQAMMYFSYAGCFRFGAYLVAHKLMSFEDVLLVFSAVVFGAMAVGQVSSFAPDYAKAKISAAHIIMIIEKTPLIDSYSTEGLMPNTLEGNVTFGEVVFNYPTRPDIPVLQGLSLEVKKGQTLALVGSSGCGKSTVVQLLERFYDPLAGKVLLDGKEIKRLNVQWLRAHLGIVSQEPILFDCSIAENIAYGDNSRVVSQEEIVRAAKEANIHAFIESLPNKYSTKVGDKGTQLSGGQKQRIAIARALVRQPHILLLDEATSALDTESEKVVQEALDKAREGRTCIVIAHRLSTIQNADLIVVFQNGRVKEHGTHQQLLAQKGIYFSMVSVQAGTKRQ

**Q.** With `CCCn1nnnc1NCc1ccc(N2CCCC2)cc1` as the molecule, how does the AC50 [1] read?
**A.** > 160 µM (inactive)

**Q.** For `CCN(CC)CCn1c2ccccc2c2nc3ccc([N+](=O)[O-])cc3cc21`, which AC50 [2] is on record?
**A.** 39.6 µM (active)

**Q.** What about the EC50 [3] of the same molecule?
**A.** > 91.2 µM (inactive)

**Q.** What about the EC50 [4] of the same molecule?
**A.** 15.8 µM (active)

**Q.** And the AC50 [5]?
**A.** 1.56 µM (active)

**Q.** What about the EC50 [6] of the same molecule?
**A.** 7.55 µM (active)

**Q.** What about the EC50 [7] of the same molecule?
**A.** > 120 µM (not active)

**Q.** And the AC50 [8]?
**A.** 5.85 µM (active)

**Q.** What about the EC50 [9] of the same molecule?
**A.** 8.22 µM (inconclusive)

**Q.** What does the source list for `COc1ccc2ccccc2c1C1CC(=O)N2CN(C3CCCCC3)CSC2=C1C#N` (centres undefined)?
**A.** IC50 [10]: > 56.8 µM (not active); IC50 [11]: 5.43 µM (active); IC50 [12]: 0.632 µM (active); IC50 [13]: > 50 µM (inactive); Ki [14]: 19.7 µM (inactive); IC50 [15]: > 80 µM (inactive)

**Q.** With `Cc1ccc(-c2noc(-c3ccccc3F)n2)cc1` as the molecule, how does the AC50 [16] read?
**A.** 26 µM (active)

**Q.** Which IC50 [17] does the source give for `CCCN1/C(=C2/SC(=S)N(CC)C2=O)C=Cc2ccccc21` here?
**A.** 30.6 µM (inactive)

**Q.** What does the source list for `Cc1nc2cc(-c3ccccc3)sc2c(=O)n1N`?
**A.** EC50 [18]: 7.12 µM (active); AC50 [19]: 5.12 µM (active); EC50 [20]: 12 µM (active); AC50 [21]: 0.868 µM (active); EC50 [22]: 5.93 µM (active); EC50 [23]: 3.78 µM (active); EC50 [24]: 0.546 µM (active); AC50 [25]: 5.13 µM (active); AC50 [26]: 3.95 µM (active); AC50 [27]: 5.97 µM (active); EC50 [28]: 2.32 µM (inconclusive); AC50 [29]: 1.17 µM (active); EC50 [30]: 0.365 µM (active); EC50 [31]: > 350 µM (not active)

**Q.** Which EC50 [32] does the source give for `N#Cc1ccc(COC(=O)c2ccc(N3CCCC3)c([N+](=O)[O-])c2)cc1` here?
**A.** 0.45 µM (inactive)

**Q.** What about the EC50 [33] of the same molecule?
**A.** 12 µM (inactive)

**Q.** For `O=C(NC(NC(=S)N1CCOCC1)C(Cl)(Cl)Cl)c1cccc2ccccc12` (centres undefined), which AC50 [34] is on record?
**A.** > 100 µM (inactive)

**Q.** With `CC(=O)Nc1ccc(OCC(=O)Nc2ccc(Cl)c(S(=O)(=O)N3CCOCC3)c2)cc1` as the molecule, how does the AC50 [35] read?
**A.** 3.49 µM (active)

**Q.** What about the AC50 [36] of the same molecule?
**A.** 9.23 µM (active)

**Q.** And the AC50 [37]?
**A.** 1.59 µM (active)

**Q.** What about the AC50 [38] of the same molecule?
**A.** 53.5 µM (active)

**Q.** Which AC50 [39] does the source give for `COc1ccc(-c2cc(NC=O)c3ncc(-c4cc(OC)c(OC)c(OC)c4)n3c2)c(OC)c1` here?
**A.** 13.6 µM (active)
